Measurements reported in patent publication US9066977B2, “Method of utilization of combination of benzophenone derivative or salt thereof and immunosuppressing agent, and pharmaceutical composition comprising these components” (TOYAMA CHEMICAL CO., LTD., priority 2008, dated 2015).

What was measured:
[1] = tested on: mouse type II collagen-induced arthritis; assay: Combined use of compound A and dexamethasone on mouse type II collagen-induced arthritis (Test Example 2); format: in vivo; conditions: male DBA/1J mice, day following final administration
Description: Eight-week-old male DBA/1J mice (8-10 mice per group; Charles River Laboratories Japan) were used. The induction of mouse type II collagen arthritis was conducted by the method according to Test Example 1.
Compound A was dissolved in a 2-fold molar amount of sodium hydroxide solution, and a 3-fold weight of polyvinylpyrrolidone was then added to the solution, followed by dilution with distilled water. The concentrations of compound A in compound A (1 mg/kg and 10 mg/kg)-dosing solutions were adjusted to be 0.1 mg/mL and 1.0 mg/mL. The concentration of compound A in a compound A (1 mg/kg)-dosing solution in combined administration was adjusted to be 0.2 mg/mL. Dexamethasone was suspended in polyvinylpyrrolidone solution. The concentration of dexamethasone in dexamethasone (0.025 mg/kg)-dosing solution was adjusted to be 0.0025 mg/mL. The concentration of dexamethasone in dexamethasone (0.025 mg/kg)-dosing solution in combined administration was adjusted to be 0.005 mg/mL. Each dosing solution was orally administered to the mice.
To control group, polyvinylpyrrolidone solution was orally administered.
After dividing into groups, and the second immunization, compound A and dexamethasone were administered once a day for 14 days.
The evaluation to mouse arthritis was conducted by the method according to Test Example 1.

[2] = tested on: mouse type II collagen-induced arthritis; assay: Combined use of compound A and methotrexate on mouse type II collagen-induced arthritis (Test Example 1); format: in vivo; conditions: male DBA/1J mice, day following final administration
Description: Eight-week-old male DBA/1J mice (9 or 10 mice per group; Charles River Laboratories Japan) were used. A 2 mg/mL bovine type II collagen dissolved in a 0.1 mol/L acetic acid solution (Koken Co., Ltd.) was mixed with an equal volume of Freund's complete adjuvant (BD Diagnostic Systems) to prepare an emulsion. The emulsion (0.2 mL) was intradermally injected at the hip of each mouse. Twenty-one days after the primary immunization, the same treatment was carried out (secondary immunization), so that type II collagen arthritis was induced.
Compound A was dissolved in a 2-fold molar amount of sodium hydroxide solution, and a 3-fold weight of polyvinylpyrrolidone was then added to the solution, followed by dilution with distilled water. The concentration of compound A in a compound A (1 mg/kg)-dosing solution was adjusted to be 0.1 mg/mL. Methotrexate was suspended in 0.5% methylcellulose solution. The concentration of methotrexate in methotrexate (0.5 mg/kg)-dosing solution was adjusted to be 0.05 mg/mL. Each dosing solution was orally administered to the mice.
To control group, polyvinylpyrrolidone solution and 0.5% methylcellulose solution were orally administered. […]
The knuckle portion and the articulations of wrist and tarsus portions of the four paws of each mouse were evaluated using the following 4 scores. […]

[3] = Compound A 1 mg/kg orally once a day for 14 days

For O=C(O)CCc1cc(C(=O)c2ccc(OC3CCCC3)cc2O)ccc1OCc1ccc2c(O)noc2c1 [Compound A, 3-(5-(4-(cyclopentyloxy)-2-hydroxybenzoyl)-2-((3-hydroxy-1,2-benzisoxazol-6-yl)methoxy)phenyl)propionic acid], the “Arthritis inhibition rate (%)” value [1, 3] was 14%, the “Arthritis inhibition rate (%)” value ([1]; Compound A 10 mg/kg orally once a day for 14 days) was 58% and the “Arthritis inhibition rate (%)” value [2, 3] was 19%.
With C[C@@H]1C[C@H]2[C@@H]3CCC4=CC(=O)C=C[C@]4(C)[C@@]3(F)[C@@H](O)C[C@]2(C)[C@@]1(O)C(=O)CO [Dexamethasone, reference compound] the “Arthritis inhibition rate (%)” value ([1]; Dexamethasone 0.025 mg/kg orally once a day for 14 days) was 30%.
CN(Cc1cnc2nc(N)nc(N)c2n1)c1ccc(C(=O)N[C@@H](CCC(=O)O)C(=O)O)cc1 [Methotrexate, reference compound] was tested, and the “Arthritis inhibition rate (%)” value ([2]; Methotrexate 0.5 mg/kg orally once a day for 14 days) was 15%.
